Results: patent EP1036075B1, “SUBSTITUTED THIAZOLIDINEDIONE AND OXAZOLIDINEDIONE HAVING ANTIDIABETIC, HYPOLIPIDEMIA AND ANTIHYPERTENSIVE PROPERTIES” (Dr. Reddy's Laboratories Ltd., priority 1997, dated 1998)

System: C57BL/KsJ-db/db mice
Assay: Blood sugar and triglycerides lowering activity in db/db mice, oral gavage daily for 6 days
Assay type: in vivo
Settings: male db/db mice; for Maximum reduction in blood glucose level (%) / Triglyceride lowering (%): oral gavage daily for 6 days
Source text: Mutation in colonies of laboratory animals and different sensitivities to dietary regimens have made the development of animal models with non-insulin dependent diabetes associated with obesity and insulin resistance possible. Genetic models such as db/db and ob/ob (See Diabetes, (1982) 31(1) : 1- 6) in mice and fa/fa and zucker rats have been developed by the various laboratories for understanding the pathophysiology of disease and testing the efficacy of new antidiabetic compounds (Diabetes, (1983) 32: 830-838; Annu. Rep. Sankyo Res. Lab. (1994) 46 : 1-57). The homozygous animals, C57 BL/KsJ-db/db mice developed by Jackson Laboratory, US, are obese. hyperglycemic, hyperinsulinemic and insulin resistant (J. Clin. Invest., (1990) 85 : 962-967), whereas heterozygous are lean and normoglycemic. In db/db model, mouse progressively develops insulinopenia with age, a feature commonly observed in late stages of human type II diabetes when blood sugar levels are insufficiently controlled. The state of pancreas and its course vary according to the models. Since this model resembles that of type II diabetes mellitus, the compounds of the present invention were tested for blood sugar and triglycerides lowering activities.
Male C57BL/KsJ-db/db mice of 8 to 14 weeks age, having body weight range of 35 to 60 grams, procured from the Jackson Laboraotory, USA, were used in the experiment. The mice were provided with standard feed (National Institute of Nutrition, Hyderabad, India) and acidified water, ad libitum. The animals having more than 300 mg / dl blood sugar were used for testing. The number of animals in each group was 4.
The random blood sugar and triglyceride levels were measured by collecting blood (100 µl) through orbital sinus, using heparinised capillary in tubes containing EDTA which was centrifuged to obtain plasma. The plasma glucose and triglycerides levels were measured spectrometrically, by glucose oxidase and glycerol-3-PO4 oxidase/peroxidase enzyme (Dr. Reddy's Lab. Diagnostic Division Kits, Hyderabad, India) methods respectively. On 6th day the blood samples were collected one hour after administration of test compounds / vehicle for assessing the biological activity.
Test compounds were suspended on 0.25 % carboxymethyl cellulose and administered to test group at a dose of 1 mg to 100 mg / kg through oral gavage daily for 6 days. The control group received vehicle (dose 10 ml / kg).

CN1C(=O)c2ccccc2N(C)C1COc1ccc(CC2SC(=O)NC2=O)cc1 (stereo not drawn) [Example 11, 5-[4-[[1,3-Dimethyl-4-oxo-1,2,3,4-tetrahydro-2-quinazolinyl]methoxy]phenylmethyl) thiazolidin-2,4-dione]
Maximum reduction in blood glucose level (%) (dose 1 mg/kg/day): 34%
Triglyceride lowering (%) (dose 1 mg/kg/day): 28%

O=C1NC(=O)C(Cc2ccc(OCC3NC(=O)c4ccccc4O3)cc2)S1 (stereo not drawn) [Example 3, 5-[4-1[[4-Oxo-3,4-dihydro-(2H)-1,3-benzoxazine-2-yl]methoxy]phenylmethyl]thiazotidin-2,4-dione]
Maximum reduction in blood glucose level (%) (dose 10 mg/kg/day): 41%
Triglyceride lowering (%) (dose 10 mg/kg/day): 48%

CN1C(=O)c2ccccc2OC1COc1ccc(CC2SC(=O)NC2=O)cc1 (stereo not drawn) [Example 4, 5-[4-[[3-Methyl-4-oxo-3,4-dihydro-(2H)-1,3-benzoxazine-2-yl]methoxy]phenylmethyl] thiazolidin-2,4-dione]
Maximum reduction in blood glucose level (%) (dose 10 mg/kg/day): 48%
Triglyceride lowering (%) (dose 10 mg/kg/day): 42%

CN1C(=O)c2ccccc2NC1COc1ccc(CC2SC(=O)NC2=O)cc1 (stereo not drawn) [Example 12, 5-[4-[[3-Methyl-4-oxo-1,2,3,4-tetrahydro-2-quinazolinyl]methoxy]phenylmethyl] thiazolidin-2,4-dione]
Maximum reduction in blood glucose level (%) (dose 3 mg/kg/day): 55%
Triglyceride lowering (%) (dose 3 mg/kg/day): 35%

Cc1c(C)c2c(c(C)c1O)CCC(C)(COc1ccc(CC3SC(=O)NC3=O)cc1)O2 (stereo not drawn) [Troglitazone, reference compound]
reduction in random blood sugar level (100 mg / kg, daily dose, on 6th day): 28%
